Columns and labels:
Cbl-b = target: T1, Cbl-b (Homo sapiens, UniProt Q13191); assay: Cbl-b probe displacement HTRF binding assay; conditions: 0.4 nM biotinylated Cbl-b, 150 nM BODIPY probe
T1 construct: biotin (biotinylated)
Outline: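 Biotinylated Cbl-b (0.4 nM) preincubated 60 min at RT with compound (20-point 1:2 series, 10 μM top), then 150 nM BODIPY probe for 15 min, then streptavidin-terbium detection. Buffer: 20 mM Hepes, 150 mM NaCl, 0.01% Triton X-100, 0.5 mM TCEP, 0.01% BSA. Loss of HTRF signal gave IC50 via four-parameter fit.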

Jurkat cells = assay: IL-2 secretion assay in CD3/CD28-activated Jurkat cells (AlphaLISA); type: cell-based, human; conditions: CD3/CD28 T Cell Activator, 24 h, IL-2 AlphaLISA
Outline: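 Jurkat cells (50,000/well) preincubated 1 h at 37° C with compound (16-point 1:2 series, final 10 μM to 300 pM) in Opti-MEM, then stimulated with CD3/CD28 activator for 24 h. Supernatant IL-2 read by AlphaLISA; EC50 from 4-parameter logistic fit.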

T1 sequence (Q13191 whole entry, species assumed): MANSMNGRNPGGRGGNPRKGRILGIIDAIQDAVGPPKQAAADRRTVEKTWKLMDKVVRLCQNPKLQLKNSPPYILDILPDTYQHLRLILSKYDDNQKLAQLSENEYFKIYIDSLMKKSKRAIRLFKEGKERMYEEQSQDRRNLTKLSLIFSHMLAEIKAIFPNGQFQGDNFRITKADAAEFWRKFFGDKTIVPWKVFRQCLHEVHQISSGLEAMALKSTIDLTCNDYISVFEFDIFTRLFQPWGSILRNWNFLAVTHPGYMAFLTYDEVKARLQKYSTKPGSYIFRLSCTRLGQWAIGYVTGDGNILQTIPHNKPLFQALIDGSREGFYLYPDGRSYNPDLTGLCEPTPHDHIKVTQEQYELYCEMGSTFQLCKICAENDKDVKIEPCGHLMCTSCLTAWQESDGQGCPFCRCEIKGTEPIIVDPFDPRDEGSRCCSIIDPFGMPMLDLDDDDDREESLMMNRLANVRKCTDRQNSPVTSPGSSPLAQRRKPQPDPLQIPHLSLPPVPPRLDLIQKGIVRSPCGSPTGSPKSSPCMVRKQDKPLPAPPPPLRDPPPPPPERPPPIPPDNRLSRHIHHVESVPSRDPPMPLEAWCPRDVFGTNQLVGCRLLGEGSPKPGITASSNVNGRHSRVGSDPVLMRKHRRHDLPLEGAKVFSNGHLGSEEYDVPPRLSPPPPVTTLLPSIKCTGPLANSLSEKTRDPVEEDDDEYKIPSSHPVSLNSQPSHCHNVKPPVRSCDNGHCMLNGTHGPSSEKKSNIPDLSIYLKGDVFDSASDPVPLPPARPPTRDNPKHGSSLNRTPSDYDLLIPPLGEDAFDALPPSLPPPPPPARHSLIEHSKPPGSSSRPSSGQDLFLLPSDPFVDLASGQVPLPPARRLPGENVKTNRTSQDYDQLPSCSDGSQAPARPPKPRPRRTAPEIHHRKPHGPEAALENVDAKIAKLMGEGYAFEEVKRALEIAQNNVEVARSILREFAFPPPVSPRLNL

Row | SMILES | IC50 (Cbl-b) [nM] | EC50 (Jurkat cells; Homo sapiens) [nM] | EC50 (Jurkat cells) [nM]
1 | Cn1cnnc1-c1cc(F)ccc1-c1cc(C2CC2)nc(-n2cnc3cc(C(O)C4CCCC4)[nH]c3c2=O)c1 (stereo not drawn) [Example 126, 6-[cyclopentyl(hydroxy)methyl]-3-[6-cyclopropyl-4-[4-fluoro-2-(4-methyl-1,2,4-triazol-3-yl)phenyl]pyridin-2-yl]-5H-pyrrolo[3,2-d]pyrimidin-4-one] | < 100 | < 100 | 
2 | Cn1cnnc1-c1cc(F)ccc1-c1cc(C2CC2)nc(-n2cnc3cc(C(F)C4CCCC4)[nH]c3c2=O)c1 (stereo not drawn) [Example 127, 6-[cyclopentyl(fluoro)methyl]-3-[6-cyclopropyl-4-[4-fluoro-2-(4-methyl-1,2,4-triazol-3-yl)phenyl]pyridin-2-yl]-5H-pyrrolo[3,2-d]pyrimidin-4-one] | < 100 | < 100 | 
3 | Cn1cnnc1-c1cc(F)ccc1-c1cc(C2CC2)nc(-n2cnc3cc(C(F)F)[nH]c3c2=O)c1 [Example 128, 3-[6-cyclopropyl-4-[4-fluoro-2-(4-methyl-1,2,4-triazol-3-yl)phenyl]-pyridin-2-yl]-6-(difluoromethyl)-5H-pyrrolo[3,2-d]pyrimidin-4-one] | < 100 | 100 to 1000 | 
4 | COCNCC1=CC2C(N1)C(=O)N(c1cc(-c3ccc(F)cc3-n3nncc3C)cc(C3CC3)n1)CC2C(F)(F)F (stereo not drawn) [Example 130, 6-[6-cyclopropyl-4-[4-fluoro-2-(5-methyltriazol-1-yl)phenyl]pyridin-2-yl]-2-[(methoxymethylamino)methyl]-4-(trifluoromethyl)-3a,4,5,7a-tetrahydro-1H-pyrrolo[2,3-c]pyridin-7-one] | < 100 |  | < 100
5 | COCCNCc1cc2c(C(F)(F)F)cn(-c3cc(-c4ccc(F)cc4-n4cc(C)nn4)cc(C4CC4)n3)c(=O)c2[nH]1 [Example 131, 6-[6-cyclopropyl-4-[4-fluoro-2-(4-methyltriazol-1-yl)phenyl]pyridin-2-yl]-2-[(2-methoxyethylamino)methyl]-4-(trifluoromethyl)-1H-pyrrolo[2,3-c]pyridin-7-one] | < 100 | < 100 | 
6 | COCCNCc1cc2ncn(-c3cc(-c4ccc(F)cc4-n4nncc4C)cc(C4CC4)n3)c(=O)c2[nH]1 [Example 132] | < 100 | < 100 | 
7 | Cc1cnnn1-c1cc(F)ccc1-c1cc(C2CC2)nc(-n2cc(C(F)(F)F)c3nc(C4CC4)[nH]c3c2=O)c1 [Example 133, 2-cyclopropyl-5-{6-cyclopropyl-4-[4-fluoro-2-(5-methyl-1H-1,2,3-triazol-1-yl)phenyl]-2-pyridyl}-7-(trifluoromethyl)-3,5-dihydro-1,3,5-triaza-4-indenone] | < 100 | 100 to 1000 | 
8 | N#Cc1c[nH]c2c(=O)n(-c3cc(-c4ccc(F)cc4-c4nncn4C(F)F)cc(C4CC4)n3)cc(C(F)(F)F)c12 [Example 134, 6-[6-cyclopropyl-4-[2-[4-(difluoromethyl)-1,2,4-triazol-3-yl]-4-fluorophenyl]pyridin-2-yl]-7-oxo-4-(trifluoromethyl)-1H-pyrrolo[2,3-c]pyridine-3-carbonitrile] | < 100 | < 100 | 
9 | Cn1cnnc1-c1cc(F)ccc1-c1cc(C2CC2)nc(-n2cc(C(F)(F)F)c3c(C#N)c[nH]c3c2=O)c1 [Example 135, 6-[6-cyclopropyl-4-[4-fluoro-2-(4-methyl-1,2,4-triazol-3-yl)phenyl]pyridin-2-yl]-7-oxo-4-(trifluoromethyl)-1H-pyrrolo[2,3-c]pyridine-3-carbonitrile] | < 100 | < 100 | 
10 | Cn1ccnc1-c1cc(F)ccc1-c1cc(C2CC2)nc(-n2cc(C(F)(F)F)c3c(C#N)c[nH]c3c2=O)c1 [Example 136, 6-{6-cyclopropyl-4-[4-fluoro-2-(1-methyl-2-imidazolyl)phenyl]-2-pyridyl}-7-oxo-4-(trifluoromethyl)-1,6-dihydro-1,6-diaza-3-indenecarbonitrile] | < 100 | < 100 | 
11 | Cn1cnnc1-c1cc(F)ccc1-c1cc(C2CC2)nc(-n2cc(C(F)(F)F)c3cc(CO)[nH]c3c2=O)c1 [Example 137, 6-[6-cyclopropyl-4-[4-fluoro-2-(4-methyl-1,2,4-triazol-3-yl)phenyl]pyridin-2-yl]-2-(hydroxymethyl)-4-(trifluoromethyl)-1H-pyrrolo[2,3-c]pyridin-7-one] | < 100 | < 100 | 
12 | COCCNCc1cc2ncn(-c3cc(-c4ccc(F)cc4-n4nncc4CF)cc(C4CC4)n3)c(=O)c2[nH]1 [Example 138, 3-[6-cyclopropyl-4-[4-fluoro-2-[5-(fluoromethyl)triazol-1-yl]phenyl]pyridin-2-yl]-6-[(2-methoxyethylamino)methyl]-5H-pyrrolo[3,2-d]pyrimidin-4-one] | < 100 | < 100 | 
13 | CO[C@@H](C)CNCc1cc2ncn(-c3cc(-c4ccc(C#N)cc4-n4nncc4CF)cc(C4CC4)n3)c(=O)c2[nH]1 [Example 139, 4-[2-(2-{[(S)-2-methoxypropylamino]methyl}-7-oxo-1,6-dihydro-1,4,6-triaza-6-indenyl)-6-cyclopropyl-4-pyridyl]-3-[5-(fluoromethyl)-1H-1,2,3-triazol-1-yl]benzonitrile] | < 100 | < 100 | 

More lines, main results first:

Row | IC50 (Cbl-b) [nM] | EC50 (Jurkat cells; Homo sapiens) [nM] | SMILES | EC50 (Jurkat cells) [nM]
14 | < 100 | < 100 | Cn1cc(C#N)nc1-c1cc(C#N)ccc1-c1cc(C2CC2)nc(-n2cnc3cc(CNC4(C)CCC4)[nH]c3c2=O)c1 [Example 115, 2-[5-cyano-2-[2-cyclopropyl-6-[6-[[(1-methylcyclobutyl)amino]methyl]-4-oxo-5H-pyrrolo[3,2-d]pyrimidin-3-yl]pyridin-4-yl]phenyl]-1-methylimidazole-4-carbonitrile] | 
15 | < 100 | < 100 | COCCNCc1cc2ncn(-c3cc(-c4ccc(C#N)cc4-c4nc(C#N)cn4C)cc(C4CC4)n3)c(=O)c2[nH]1 [Example 116, 2-[5-cyano-2-[2-cyclopropyl-6-[6-[(2-methoxyethylamino)methyl]-4-oxo-5H-pyrrolo[3,2-d]pyrimidin-3-yl]pyridin-4-yl]phenyl]-1-methylimidazole-4-carbonitrilef] | 
16 | < 100 | 100 to 1000 | C[C@H]1CCCN(Cc2cc3c(C4CC4)cn(-c4cc(-c5ccc(C#N)cc5-c5nc(C(F)(F)F)cn5C)cc(C5CC5)n4)c(=O)c3[nH]2)C1 [Example 117, 4-[2-(2-{[(S)-3-methyl-1-piperidyl]methyl}-4-cyclopropyl-7-oxo-1,6-dihydro-1,6-diaza-6-indenyl)-6-cyclopropyl-4-pyridyl]-3-[1-methyl-4-(trifluoromethyl)-2-imidazolyl]benzonitrile] | 
17 | < 100 | 100 to 1000 | COCCNCc1cc2ncn(-c3cc(-c4ccc(F)cc4-c4ncnn4C)cc(C4CC4)n3)c(=O)c2[nH]1 [Example 118, 3-[6-cyclopropyl-4-[4-fluoro-2-(2-methyl-1,2,4-triazol-3-yl)phenyl]-pyridin-2-yl]-6-[(2-methoxyethylamino)methyl]-5H-pyrrolo[3,2-d]pyrimidin-4-one] | 
18 | < 100 | 100 to 1000 | C[C@H]1CCCN(Cc2cc3c(C4CC4)cn(-c4cc(-c5ccc(F)cc5-c5ncnn5C)cc(C5CC5)n4)c(=O)c3[nH]2)C1 [Example 119, 4-Cyclopropyl-6-[6-cyclopropyl-4-[4-fluoro-2-(2-methyl-1,2,4-triazol-3-yl)phenyl]pyridin-2-yl]-2-[[(3S)-3-methylpiperidin-1-yl]methyl]-1H-pyrrolo[2,3-c]pyridin-7-one] | 
19 | < 100 | < 100 | Cn1ncnc1-c1cc(F)ccc1-c1cc(C2CC2)nc(-n2cnc3cc(CNC4(C)CCC4)[nH]c3c2=O)c1 [Example 120, 3-[6-cyclopropyl-4-[4-fluoro-2-(2-methyl-1,2,4-triazol-3-yl)phenyl]-pyridin-2-yl]-6-[[(1-methylcyclobutyl)amino]methyl]-5H-pyrrolo[3,2-d]pyrimidin-4-one] | 
20 | < 100 | 100 to 1000 | Cn1cnnc1-c1cc(F)ccc1-c1cc(C2CC2)nc(-n2cnc3cc(CC4CCCC4)[nH]c3c2=O)c1 [Example 121, 6-(cyclopentylmethyl)-3-[6-cyclopropyl-4-[4-fluoro-2-(4-methyl-1,2,4-triazol-3-yl)phenyl]pyridin-2-yl]-5H-pyrrolo[3,2-d]pyrimidin-4-one] | 
21 | < 100 | 100 to 1000 | Cn1cnnc1-c1cc(F)ccc1-c1cc(C2CC2)nc(-n2cnc3cc(CC4CCOCC4)[nH]c3c2=O)c1 [Example 122, 3-[6-cyclopropyl-4-[4-fluoro-2-(4-methyl-1,2,4-triazol-3-yl)phenyl]pyridin-2-yl]-6-(oxan-4-ylmethyl)-5H-pyrrolo[3,2-d]pyrimidin-4-one] | 
22 | < 100 | 100 to 1000 | Cn1cnnc1-c1cc(F)ccc1-c1cc(C2CC2)nc(-n2cnc3cc(CC4COC4)[nH]c3c2=O)c1 [Example 123, 3-[6-cyclopropyl-4-[4-fluoro-2-(4-methyl-1,2,4-triazol-3-yl)phenyl]pyridin-2-yl]-6-(oxetan-3-ylmethyl)-5H-pyrrolo[3,2-d]pyrimidin-4-one] | 
23 | < 100 | 100 to 1000 | Cc1cc2ncn(-c3cc(-c4ccc(F)cc4-c4nncn4C)cc(C4CC4)n3)c(=O)c2[nH]1 [Example 124, 3-[6-cyclopropyl-4-[4-fluoro-2-(4-methyl-1,2,4-triazol-3-yl)phenyl]-pyridin-2-yl]-6-methyl-5H-pyrrolo[3,2-d]pyrimidin-4-one] | 
24 | < 100 | 100 to 1000 | Cn1cnnc1-c1cc(F)ccc1-c1cc(C2CC2)nc(-n2cnc3cc(C4CCOC4)[nH]c3c2=O)c1 (stereo not drawn) [Example 125, 3-[6-cyclopropyl-4-[4-fluoro-2-(4-methyl-1,2,4-triazol-3-yl)phenyl]-pyridin-2-yl]-6-(oxolan-3-yl)-5H-pyrrolo[3,2-d]pyrimidin-4-one] | 

From patent US20250011318A1 (ARCUS BIOSCIENCES, INC., priority 2023, published 2025)
